Molecules are shown by their SMILES.

The values that follow come from patent US20230312605A1, “PYRROLO[2,1-F][1,2,4]TRIAZINES AND PREPARATION AND USES THEREOF” (BioSplice Therapeutics, Inc., priority 2021, published 2023).

The experiment has as its target recombinant DYRK1A kinase (Homo sapiens (Human), UniProt Q13627). The experiment in a line: DYRK1A kinase assay (Ser/Thr 18 peptide Z-lyte FRET assay). Format: biochemical. The note with it: recombinant DYRK1A 0.25 µg/mL, ATP 15 µM, Ser/Thr peptide 18 4 µM, one hour at room temperature; table head prints EC50, method says IC50. Put shortly: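 Recombinant human DYRK1A (0.25 µg/mL) with 15 µM ATP and 4 µM Ser/Thr 18 peptide was incubated 1 h at room temperature with compound (11-point, 10 µM top), in duplicate. Z-lyte FRET read-out (coumarin/fluorescein emission ratio) was converted to percent phosphorylation; IC50 from non-linear regression.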

By EC50 is commonly meant the concentration that produces a half-maximal response. On to `CC1(C)CC(Nc2ncc3c(-c4cnc5nccn5c4)ccn3n2)C1` [Compound 237, N-(3,3-Dimethylcyclobutyl)-5-(imidazo[1,2-a]pyrimidin-6-yl)pyrrolo[2,1-f] [1,2,4]triazin-2-amine], for which the EC50 was found to be 3 nM. The result for `Cc1nc2ccc(-c3ccn4nc(N[C@H]5C[C@@H](O)C5)ncc34)nc2n1CC(F)F` [Compound 1720, cis-3-((5-(3-(2,2-Difluoroethyl)-2-methyl-3H-imidazo [4,5-b]pyridin-5-yl)pyrrolo[2,1-f] [1,2,4]triazin-2-yl)amino)cyclobutan-1-ol] reads 5 nM; that for `CCO[C@H]1CC[C@@H](Nc2ncc3c(-c4cnc5ncccc5c4)ccn3n2)CC1` [Compound 1541], 3 nM; that for `Cc1nc2ccc(-c3ccn4nc(N[C@H]5CCN(CC(C)C)C[C@H]5F)ncc34)nc2n1CC(F)F` [Compound 1909, 5-(3-(2,2-difluoroethyl)-2-methyl-3H-imidazo[4,5-b]pyridin-5-yl)-N-((3R,4S)-3-fluoro-1-isobutylpiperidin-4-yl)pyrrolo[2,1-f][1,2,4]triazin-2-amine], 5 nM.

On to `Cc1nc2ccc(-c3ccn4nc(N[C@H]5CC[C@@H](C(=O)N6CCC6)CC5)ncc34)nc2n1CC(F)F` [Compound 1896, azetidin-1-yl(cis-4-((5-(3-(2,2-difluoroethyl)-2-methyl-3H-imidazo[4,5-b]pyridin-5-yl)pyrrolo[2,1-f][1,2,4]triazin-2-yl)amino)cyclohexyl)methanone], for which the EC50 was 3 nM. With `Cc1nc2ncc(-c3ccn4nc(NC5CCN(C(=O)C(C)C)CC5)ncc34)cc2n1CC(F)F` [Compound 1888, 1-(4-((5-(1-(2,2-Difluoroethyl)-2-methyl-1H-imidazo[4,5-b]pyridin-6-yl)pyrrolo[2,1-f][1,2,4]triazin-2-yl)amino)piperidin-1-yl)-2-methylpropan-1-one], the EC50 was determined as 3 nM. The result for `Cc1nc2ccc(-c3ccn4nc(NC5CCN(CCO)CC5)ncc34)nc2n1CC(F)F` [Compound 1852, 2-(4-((5-(3-(2,2-Difluoroethyl)-2-methyl-3H-imidazo[4,5-b]pyridin-5-yl)pyrrolo[2,1-f][1,2,4]triazin-2-yl)amino)piperidin-1-yl)ethan-1-ol] reads 9 nM; that for `Cc1nc2ccc(-c3ccn4nc(NC[C@H](C)O)ncc34)nc2n1CC(F)F` [Compound 1832, (S)-1-((5-(3-(2,2-Difluoroethyl)-2-methyl-3H-imidazo[4,5-b]pyridin-5-yl)pyrrolo [2,1-f] [1,2,4]triazin-2-yl)amino)propan-2-ol], 6 nM.

Consider `COC[C@H]1C[C@H](Nc2ncc3c(-c4ccc5nccnc5c4)ccn3n2)C1` [Compound 1377, N-(trans-3-(Methoxymethyl)cyclobutyl)-5-(quinoxalin-6-yl)pyrrolo[2,1-f] [1,2,4]triazin-2-amine], for which the EC50 was 8 nM.

Take `Cc1nc2ccc(-c3ccn4nc(NC5CCN(C(=O)C6CC6)CC5)ncc34)nc2n1CC(F)F` [Compound 1860]: the EC50 turned out to be 5 nM. Regarding `Cc1nc2ncc(-c3ccn4nc(N[C@H]5CC[C@@](C)(O)CC5)ncc34)cc2n1CC(F)F` [Compound 684, cis-4-((5-(1-(2,2-Difluoroethyl)-2-methyl-1H-imidazo[4,5-b]pyridin-6-yl)pyrrolo[2,1-f][1,2,4]triazin-2-yl)amino)-1-methylcyclohexan-1-ol], the EC50 was 4 nM. Then `Cc1nc2ccc(-c3ccn4nc(NCC(C)(C)F)ncc34)nc2n1C` [Compound 855, 5-(2,3-Dimethyl-3H-imidazo[4,5-b]pyridin-5-yl)-N-(2-fluoro-2-methylpropyl)pyrrolo[2,1-f][1,2,4]triazin-2-amine], with 43 nM; and `Cc1nc2ccc(-c3ccn4nc(N[C@H]5CC[C@@H](C(=O)N6CC(F)(F)C6)CC5)ncc34)nc2n1CC(F)F` [Compound 1950, (3,3-Difluoroazetidin-1-yl)(cis-4-((5-(3-(2,2-difluoroethyl)-2-methyl-3H-imidazo[4,5-b]pyridin-5-yl)pyrrolo[2,1-f][1,2,4]triazin-2-yl)amino)cyclohexyl)methanone], with 3 nM.
